The record followed here is article PMC11638965, “Leveraging Dual-Ligase Recruitment to Enhance Protein Degradation via a Heterotrivalent Proteolysis Targeting Chimera” (Journal of the American Chemical Society, 2024).

The structures appear in SMILES notation. “Also recorded” adds a separate entry of the source.

Assay [1] deals with HiBiT-BRD4 and HaloTag-CRBN. The experiment in a line: NanoBRET live cell ternary complex formation assay. Type of assay: cell-based, human. The conditions noted are these: for ternary complex formation between BRD4 and CRBN (in words): HiBiT-BRD4 HEK293 cells, HaloTag-CRBN, MG132 pretreatment, 0.01, 0.1 and 1 μM, 3.5 h; for time to plateau of ternary complex signal with CRBN: NanoBRET, HiBiT-BRD4 HEK293 cells with HaloTag-CRBN. The method, then: (§1) NanoBRET ternary complex assays were performed using Promega kits for CRBN (ND2720) and VHL (ND2700) according to manufacturer’s instructions. One day prior to the assay, HEK293 HiBiT-BRD4 (LgBiT Stable) were plated at a density of 800,000 cells/well in a 6-well plate. Cells were allowed to adhere for at least 4 h. Transfection mixtures containing 100 μL Opti-MEM, 6 μL FuGENE HD, and either 2 μg HaloTag-CRBN or HaloTag-VHL were prepared and allowed to incubate for 10 min at room temperature prior to addition to the cells. The next day, cells were trypsinized and resuspended in phenol red-free Opti-MEM Reduced Serum Medium supplemented with 4% FBS. Cells were counted and density was adjusted to 200,000 cells/mL. Cells were divided into two pools: one which received HaloTag NanoBRET 618 Ligand at a final concentration of 100 nM and one which received the same volume of DMSO. Cells were plated on white tissue-culture 96-well plates (100 μL/well) and allowed to adhere overnight. The next day, media was aspirated from the cells and replaced with phenol red-free Opti-MEM Reduced Serum medium supplemented with 4% FBS and a 1:100 dilution of Nano-Glo Vivazine substrate (Promega) and 10 μM MG132. Luminescence was allowed to equilibrate at 37 °C, 5% CO2 for 1 h. During this time, a dilution series of each PROTAC at 10x the desired final concentration was prepared (keeping DMSO constant in all concentrations). 10 μL of this dilution series was added to the plate after luminescence equilibration, and kinetic measurements of donor emission at 460 nm and acceptor emission at 618 nm were collected every 3 min using a ClarioStar plate reader. milliBRET ratios were calculated as (Emission at 618 nm/Emission at 460 nm) × 1000. Donor-contributed background or bleedthrough was corrected for by subtracting milliBRET ratios from no ligand control cells from treated cells. Corrected milliBRET ratios were plotted as a function of time in GraphPad Prism.

Assay [2] deals with HiBiT-BRD4 and HaloTag-VHL. The assay can be described thus: NanoBRET live cell ternary complex formation assay. Particulars: HiBiT-BRD4 HEK293 cells, MG132 pretreatment, 0.01, 0.1 and 1 μM, 3.5 h. Type of assay: cell-based, human. The method, then: as §1
(In general: Bioluminescence resonance energy transfer reports proximity on the nanometre scale.)

The target of a further assay is BRD4 (Homo sapiens, UniProt O60885). The assay can be described thus: NanoBRET ubiquitination assay. Type of assay: cell-based. Particulars: parental vs CRBN KO or VHL KO HiBiT-BRD4 cells, HaloTag-Ubiquitin, 12 nM to 3 μM, 4 h. The method, then: NanoBRET ubiquitination experiments were conducted using Promega kit ND2690. HEK293 HiBiT-BRD4 parental, VHL KO, or CRBN KO cells (all stably expressing LgBiT) were plated in 6-well plates at 800,000 cells/well and allowed to adhere for 4–6 h prior to being transfected with 2 μg of HaloTag-Ubiquitin Fusion Vector. Cells were allowed to express overnight, then were trypsinized and resuspended in Opti-MEM (reduced serum, no phenol red) 4% FBS at a concentration of 220,000 cells/mL. HaloTag NanoBRET 618 ligand was added at a final concentration of 100 nM to cells (with a portion of cells retained without ligand for use as no-acceptor controls for normalization). 90 μL of cells were then dispensed into each well of a tissue culture 96-well plate and cells were allowed to adhere overnight. The next day, media was aspirated from cells and replaced with 90 μL of a 1× solution of Opti-MEM 4% FBS containing a 1:100 dilution of Nano-Glo Vivazine substrate. […] 10 μL of each 10 × PROTAC was added to each well and the plate was immediately placed in a ClarioStar plate reader (prewarmed to 37 °C) where donor emission (460 nm) and acceptor emission (618 nm) was collected every 3 min for 4 h. NanoBRET ratios were calculated as described in the ternary complex assay.

Another assay deals with T1, VHL (Homo sapiens, UniProt P40337).
T1 construct: host or cells: HEK293, transient
The assay can be described thus: Western blot dose-response degradation in HEK293 cells. In kind it is cell-based. Particulars: 1 μM to 100 pM, 6 h. A digest of the protocol: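 HEK293 cells treated 6 h at 37 °C with compound over 1 μM to 100 pM alongside vehicle control; lysates in RIPA immunoblotted with target antibodies, tubulin as loading control, fluorescent detection. Band intensities fitted by linear regression to give pDC50; SD for two independent repeats, SEM for three.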
In general terms: A western blot detects proteins with antibodies after separation by electrophoresis.

T1 sequence (P40337 whole entry): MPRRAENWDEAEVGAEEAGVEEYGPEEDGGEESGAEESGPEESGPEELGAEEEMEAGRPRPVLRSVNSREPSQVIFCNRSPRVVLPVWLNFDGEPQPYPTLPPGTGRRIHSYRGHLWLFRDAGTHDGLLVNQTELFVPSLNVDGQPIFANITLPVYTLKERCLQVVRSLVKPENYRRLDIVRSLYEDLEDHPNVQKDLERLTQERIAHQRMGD

As for `Cc1ncsc1-c1ccc(CNC(=O)[C@@H]2C[C@@H](O)CN2C(=O)[C@@H](NC(=O)COCC(C)(COCCOCCOCCNc2cc3c(cc2F)C(=O)N(C2CCC(=O)NC2=O)C3=O)COCCOCCOCCOC(=O)C[C@@H]2N=C(c3ccc(Cl)cc3)c3c(sc(C)c3C)-n3c(C)nnc32)C(C)(C)C)cc1` (mixture of isomers) [AB3063 (26), (17S)-11-((2-(2-(2-((2-(2,6-dioxopiperidin-3-yl)-6-fluoro-1,3-dioxoisoindolin-5-yl)amino)ethoxy)ethoxy)ethoxy)methyl)-17-((2S,4R)-4-hydroxy-2-((4-(4-methylthiazol-5-yl)benzyl)carbamoyl)pyrrolidine-1-carbonyl)-11,18,18-trimethyl-15-oxo-3,6,9,13-tetraoxa-16-azanonadecyl 2-((S)-4-(4-chlorophenyl)-2,3,9-trimethyl-6H-thieno[3,2-f][1,2,4]triazolo[4,3-a][1,4]diazepin-6-yl)acetate], in assay [1], the “ternary complex formation between BRD4 and CRBN (in words)” value was “can engage and form ternary complexes”; the “time to plateau of ternary complex signal with CRBN” value was 30 min. Besides, the “ternary complex formation between BRD4 and VHL (in words)” value in assay [2] is “can engage and form ternary complexes”.

As to `Cc1ncsc1-c1ccc([C@H](C)NC(=O)[C@@H]2C[C@@H](O)CN2C(=O)[C@@H](NC(=O)COCC(C)(COCCOCCOCCNc2cc3c(cc2F)C(=O)N(C2CCC(=O)NC2=O)C3=O)COCCOCCOCCOC(=O)C[C@@H]2N=C(c3ccc(Cl)cc3)c3c(sc(C)c3C)-n3c(C)nnc32)C(C)(C)C)cc1` (mixture of isomers) [AB3067 (27), (17S)-11-((2-(2-(2-((2-(2,6-dioxopiperidin-3-yl)-6-fluoro-1,3-dioxoisoindolin-5-yl)amino)ethoxy)ethoxy)ethoxy)methyl)-17-((2S,4R)-4-hydroxy-2-(((S)-1-(4-(4-methylthiazol-5-yl)phenyl)ethyl)carbamoyl)pyrrolidine-1-carbonyl)-11,18,18-trimethyl-15-oxo-3,6,9,13-tetraoxa-16-azanonadecyl 2-((S)-4-(4-chlorophenyl)-2,3,9-trimethyl-6H-thieno[3,2-f][1,2,4]triazolo[4,3-a][1,4]diazepin-6-yl)acetate], in assay [1] (listed as 27), the “ternary complex formation between BRD4 and CRBN (in words)” value was “can engage and form ternary complexes; also recorded: more robust dose–response with both VHL and CRBN than 26”. Moreover, the “time to plateau of ternary complex signal with CRBN” value in assay [1] amounted to 30 min. Moreover, the “ternary complex formation between BRD4 and VHL (in words)” value in assay [2] (listed as 27) is “can engage and form ternary complexes; also recorded: more robust dose–response with both VHL and CRBN than 26”. In addition, the “ubiquitination of BRD4 (in words)” value at BRD4 was “occurs more rapidly than in either the CRBN KO or VHL KO cells”.

Regarding `Cc1ncsc1-c1ccc(CNC(=O)[C@@H]2C[C@@H](O)CN2C(=O)[C@@H](NC(=O)COCC(COCCOCCOCCNc2cc3c(cc2F)C(=O)N(C2CCC(=O)NC2=O)C3=O)(COCCOCCOCCOC(=O)C[C@@H]2N=C(c3ccc(Cl)cc3)c3c(sc(C)c3C)-n3c(C)nnc32)COCCOCCOCCOC(=O)C[C@@H]2N=C(c3ccc(Cl)cc3)c3c(sc(C)c3C)-n3c(C)nnc32)C(C)(C)C)cc1` (mixture of isomers) [AB3124 (86)], the “VHL degradation (in words)” value at VHL was “no observed degradation of VHL”.
